This is an account of results in patent US8778941B2, “TRPM8 antagonists and their use in treatments” (AMGEN Inc., priority 2011, dated 2014).

A word on the pIC50: it is −log10 of the IC50, conventionally taken in molar units.

pIC50: −log10 of the molar value.

This assay has as its target T1, human TRPM8 (Homo sapiens, UniProt Q7Z2W7).
T1 construct: expressed in transfected cells; host or cells: Chinese hamster ovary (CHO) cells, T-REx tetracycline-inducible expression system (Invitrogen), co-transfected with pcDNA3.1 jellyfish aequorin
Briefly: Luminescence readout assay for measuring intracellular calcium (aequorin), hTRPM8 antagonism. It is filed as cell-based. The conditions noted are these: CHO cell line expressing human TRPM8 and aequorin; activation by icilin, L-menthol or cold buffer (table does not say which). A general note: Calcium assays in cells follow changes in intracellular calcium, usually with a dye or a luminescent sensor.

T1 sequence (Q7Z2W7 whole entry): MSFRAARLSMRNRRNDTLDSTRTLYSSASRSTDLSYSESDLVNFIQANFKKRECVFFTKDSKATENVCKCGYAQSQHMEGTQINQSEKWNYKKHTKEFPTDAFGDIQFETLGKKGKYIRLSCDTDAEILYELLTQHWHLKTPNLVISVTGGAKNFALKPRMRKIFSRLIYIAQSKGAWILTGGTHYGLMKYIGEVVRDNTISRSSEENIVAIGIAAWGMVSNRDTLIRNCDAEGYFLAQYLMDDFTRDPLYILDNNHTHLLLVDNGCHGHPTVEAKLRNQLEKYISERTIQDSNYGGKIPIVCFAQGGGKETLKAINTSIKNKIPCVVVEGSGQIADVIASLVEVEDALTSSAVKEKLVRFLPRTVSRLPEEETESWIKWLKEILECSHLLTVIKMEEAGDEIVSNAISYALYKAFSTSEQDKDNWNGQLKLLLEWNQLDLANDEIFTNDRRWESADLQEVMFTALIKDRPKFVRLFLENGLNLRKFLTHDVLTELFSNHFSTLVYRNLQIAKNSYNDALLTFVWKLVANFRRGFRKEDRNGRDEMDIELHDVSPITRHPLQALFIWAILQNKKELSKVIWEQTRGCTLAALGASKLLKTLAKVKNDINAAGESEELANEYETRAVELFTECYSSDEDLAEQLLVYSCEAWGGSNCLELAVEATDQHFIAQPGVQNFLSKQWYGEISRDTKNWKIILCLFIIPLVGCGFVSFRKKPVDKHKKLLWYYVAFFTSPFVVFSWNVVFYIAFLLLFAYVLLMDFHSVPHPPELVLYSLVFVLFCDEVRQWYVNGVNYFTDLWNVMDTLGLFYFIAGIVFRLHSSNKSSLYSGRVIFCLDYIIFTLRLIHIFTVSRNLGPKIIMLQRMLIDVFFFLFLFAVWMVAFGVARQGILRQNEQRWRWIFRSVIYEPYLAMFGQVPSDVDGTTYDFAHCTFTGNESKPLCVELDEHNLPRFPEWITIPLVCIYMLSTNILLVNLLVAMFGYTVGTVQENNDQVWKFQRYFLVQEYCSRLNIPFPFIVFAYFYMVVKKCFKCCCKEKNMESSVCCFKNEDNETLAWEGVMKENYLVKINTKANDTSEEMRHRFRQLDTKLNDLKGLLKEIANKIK

For `CC(C)(C)OC(=O)N[C@@H](c1ccc(C(F)(F)F)cc1)c1ncccc1Br` [Example 173, (S)-tert-Butyl((3-bromopyridin-2-yl)(4-(trifluoromethyl)-phenyl)methyl)carbamate], the pIC50 is 6.52.

For `CC(C)(C)OC(=O)N[C@@H](c1ccc(OC(F)(F)F)c(F)c1)c1ncccc1F` [Example 174, (S)-tert-Butyl((3-fluoro-4-(trifluoromethoxy)phenyl)(3-fluoropyridin-2-yl)methyl)carbamate], the pIC50 was 6.32.

With `CC(C)OC(=O)N[C@@H](c1ccc(OC(F)(F)F)c(F)c1)c1ncccc1F` [Example 175, (S)-isopropyl ((3-fluoro-4-(trifluoromethoxy)phenyl)(3-fluoropyridin-2-yl)methyl)carbamate], the pIC50 is 7.17.

As for `O=C(N[C@@H](c1ccc(OC(F)(F)F)c(F)c1)c1ncccc1F)OC1CCOCC1` [Example 176, (S)-tetrahydro-2H-pyran-4-yl ((3-fluoro-4-(trifluoromethoxy)phenyl)(3-fluoropyridin-2-yl)methyl)carbamate], the pIC50 was 6.68.

Consider `O=C(N[C@@H](c1ccc(OC(F)(F)F)c(F)c1)c1ncccc1F)OC1COC1` [Example 177, (S)-oxetan-3-yl ((3-fluoro-4-(trifluoromethoxy)phenyl)(3-fluoropyridin-2-yl)methyl)carbamate], for which the pIC50 is 6.29.

Take `O=C1CCC(OC(=O)N[C@@H](c2ccc(OC(F)(F)F)c(F)c2)c2ncccc2F)CN1` (stereo partly drawn) [Example 178, 6-Oxopiperidin-3-yl((S)-(3-fluoro-4-(trifluoromethoxy)phenyl)(3-fluoropyridin-2-yl)methyl)carbamate]: the pIC50 was 5.69.

With `O=C(Nc1cccc2ncccc12)N[C@@H](c1ccc(C(F)(F)F)cc1)c1ncccc1C(F)(F)F` [Example 179, (S)-1-(Quinolin-5-yl)-3-((4-(trifluoromethyl)phenyl)(3-(trifluoromethyl)pyridin-2-yl)methyl)urea], the pIC50 is 7.11.

Consider `O=C(Nc1ccc(C(=O)O)cc1)N[C@@H](c1ccc(OC(F)(F)F)c(F)c1)c1ncccc1F` [Example 180, (S)-4-(3-((3-Fluoro-4-(trifluoromethoxy)phenyl)(3-fluoropyridin-2-yl)methyl)ureido)benzoic acid], for which the pIC50 was 5.49.

Consider `O=C(Nc1ccccc1Cl)N[C@@H](c1ccc(C(F)(F)F)cc1)c1ncccc1C(F)(F)F` [Example 181, (S)-1-(2-chlorophenyl)-3-((4-(trifluoro-methyl)phenyl) (3-(trifluoro-methyl)pyridin-2-yl)methyl)urea (2,2,2-trifluoro-acetate)], for which the pIC50 was 6.85.

As for `COC(=O)c1cccc(NC(=O)N[C@@H](c2ccc(C(F)(F)F)cc2)c2ncccc2C(F)(F)F)c1C` [Example 182, (S)-methyl 2-methyl-3-(3-((4-(trifluoro-methyl)phenyl) (3-(trifluoro-methyl)pyridin-2-yl)methyl)ureido)benzoate (2,2,2-trifluoro-acetate)], the pIC50 is 6.37.

Turning to `COc1ccc(C)cc1NC(=O)N[C@@H](c1ccc(C(F)(F)F)cc1)c1ncccc1C(F)(F)F` [Example 183, (S)-1-(2-methoxy-5-methylphenyl)-3-((4-(trifluoro-methyl)phenyl) (3-(trifluoro-methyl)pyridin-2-yl)methyl)urea (2,2,2-trifluoro-acetate)], the pIC50 was 6.25.

Turning to `O=C(NCc1ccc(Cl)c(Cl)c1)N[C@@H](c1ccc(C(F)(F)F)cc1)c1ncccc1C(F)(F)F` [Example 184, (S)-1-(3,4-dichlorobenzyl)-3-((4-(trifluoro-methyl)phenyl) (3-(trifluoro-methyl)pyridin-2-yl)methyl)urea (2,2,2-trifluoro-acetate)], the pIC50 was 6.23.

For `O=C(NC1CCCc2ccccc21)N[C@@H](c1ccc(C(F)(F)F)cc1)c1ncccc1C(F)(F)F` (stereo partly drawn) [Example 185, 1-(1,2,3,4-tetrahydro-naphthalen-1-yl)-3-((S)-(4-(trifluoromethyl)phenyl)(3-(trifluoromethyl)pyridin-2-yl)methyl)urea (2,2,2-trifluoro-acetate)], the pIC50 was 6.13.
